“Also recorded” adds a separate entry of the source.
Legend:
LAMPS models [1] = assay: LAMPS model functionality (albumin and blood urea nitrogen secretion); type: cell-based, human; conditions: 10-day time course, vs vehicle control, 10 μM OCA, 30 μM PGZ; for Albumin curves / Blood urea nitrogen curves: NAFLD disease media, 10 μM TGZ, Vorinostat 1.7 or 5 μM, AS601245 1 or 3 μM, pioglitazone + vorinostat combination
From the text: (§1) LAMPS cell sources and cell culture. A single lot of selected cryopreserved primary human hepatocytes (lot #Hu1960) with >90% viability and re-plating efficiency post-thaw were purchased from ThermoFisher. A single lot of selected cryopreserved primary human liver sinusoidal endothelial cells (LSEC; lot #: HL160019) were purchased from LifeNet Health (formerly Samsara Sciences; Virginia Beach, VA.). The human monoblast cell line, THP-1, used to generate Kupffer cells, was purchased from ATCC (Rockville, MD). LX-2 human stellate cells were acquired from Sigma Millipore (Billerica, MA). The LX-2 cell is an immortalized human hepatic stellate cell that constitutively expresses key receptors regulating hepatic fibrosis, and proliferates in response to PDGF, a prominent mitogen contributing to liver fibrosis (Bonner 2004, Xu, Hui et al. 2005).
Primary human hepatocytes were thawed following the manufacturer's recommendations using Cryopreserved Hepatocyte Recovery Medium (CHRM; ThermoFisher) and were initially cultured in hepatocyte plating media (HPM) containing Williams E medium (11.5 mM glucose) supplemented with 5% fetal bovine serum, […] penicillin-streptomycin and 2 mM L-glutamine. For perfusion in LAMPS models, cells were maintained in normal fasting (NF), early metabolic syndrome (EMS), or late metabolic syndrome (LMS) media. The description of components of these media types is detailed in the Metabolic Syndrome Media section below. LSECs were thawed and expanded in endothelial cell basal medium-2 (EBM-2) supplemented with the endothelial growth medium-2 (EGM-2) supplement pack (Lonza; Alpharetta, GA; #CC-4176). THP-1 cells were cultured in suspension in RPMI-1640 medium (ThermoFisher) supplemented with 10% fetal bovine serum (FBS; ThermoFisher), 100 μg/mL penicillin streptomycin (ThermoFisher), and 2 mM L-glutamine (ThermoFisher). THP-1 cells were differentiated into mature macrophages by treatment with 200 ng/mL phorbol myristate acetate (Sigma Aldrich) for 48 h. Differentiated THP-1 monocytes release human tumor necrosis factor alpha (TNF-α) and interleukin-6 (IL-6) in response to LPS treatment, a condition reported to induce the immune mediated liver toxic response in in vitro models (Jang, Choi et al. 2006, Kostadinova, Boess et al. 2013). LX-2 cells were cultured in Dulbecco's Modified Eagle Medium (DMEM; ThermoFisher) supplemented with 2% FBS and 100 μg/mL penicillin streptomycin.
Metabolic syndrome media. We developed medias that were designed to create disease progression from Normal Fasting (NF) to early metabolic syndrome (EMS or NAFLD) and late metabolic syndrome (LMS or T2D) over a two-week period in the LAMPS platform (Mohammed 2021). For the studies described here, we used both NF and EMS media formulations. […] We then adjusted these components to reflect the pathophysiological conditions as described below (Alford, Bloodm et al. 1977, Kuhl 1977, Kim, Kim et al. 2000, Chitturi, Abeygunasekera et al. 2002, de Almeida, Cortez-Pinto et al. 2002, Valencia, Marin et al. 2002, Edgerton, Ramnanan et al. 2009, Winnick, An et al. 2009).
Early Metabolic Syndrome (EMS) Media: Early metabolic syndrome (EMS) medium was derived from the NF media formulation with the following modifications: 11.5 mM glucose, 10 nM insulin, […] glucagon, 200 μM sodium oleate and 100 μM palmitic acid (Sigma).
(§2) LAMPS model assembly and maintenance. […] The experimental setup workflow is described in the Supplement.

LAMPS models [2] = assay: LAMPS hepatocellular steatosis (LipidTOX labeling); type: cell-based, human; conditions: for Hepatocellular steatosis / lipid accumulation (LipidTOX intensity): NAFLD disease media, day 10, vs vehicle control, 10 μM TGZ, Vorinostat 1.7 or 5 μM, AS601245 1 or 3 μM, pioglitazone + vorinostat combination; for Effect on steatosis: LAMPS NAFLD/MAFLD model, summary statement
Method: as §2
Steatosis measurements. Steatosis measurements were performed using HCS LipidTOX Deep Red Neutral Lipid Stain (ThermoFisher) after completion of the experimental time course (Day 10) in LAMPS models as previously described (Lee-Montiel, George et al. 2017) and are outlined in detail in the Supplemental Methods section.

[3] = system: TNF-α, IL-6, IL-8, IL-1α and MCP-1; assay: LAMPS production of pro-inflammatory cytokines; type: cell-based, human; conditions: for Inflammatory cytokine production: LAMPS
From the text: as §2

[4] = system: Pro-collagen 1A1 and TIMP-1; assay: LAMPS secretion of pro-fibrotic markers (ELISA); type: cell-based, human; conditions: for Effect on secreted pro-fibrotic markers / fibrosis: LAMPS NAFLD/MAFLD model, summary statement; for Decrease in secretion of the pro-fibrotic marker Pro-collagen 1a1: 30 μM PGZ vs vehicle, decrease not statistically significant; for Decrease in secretion of the pro-fibrotic marker Pro-Col 1a1: 10 μM TGZ vs vehicle, decrease is not significant
From the text: as §2

LAMPS models [5] = assay: LAMPS cytotoxicity (lactate dehydrogenase secretion); conditions: for Lactate dehydrogenase curves: 10-day time course, vs vehicle control, 10 μM OCA, 30 μM PGZ, 10 μM TGZ
Method: LAMPS model assembly and maintenance. LAMPS studies were carried out as previously described (Vernetti, Senutovitch et al. 2016, Lee-Montiel, George et al. 2017, Miedel, Gavlock et al. 2019, Mohammed 2021) with modification to include the use of human primary liver sinusoidal endothelial cells (LSECs). A single chamber commercial microfluidic device (HAR-V single channel device, SCC-001, Nortis, Inc. Seattle, WA) was used for LAMPS studies. For all steps involving injection of media and/or cell suspensions into LAMPS devices, 100-150 μl per device was used to ensure complete filling of fluidic pathways, chamber and bubble traps. The percentages of hepatocytes, THP-1, LSEC, and LX-2 cells are consistent with the scaling used in our previously published models (Vernetti, Senutovitch et al. 2016, Lee-Montiel, George et al. 2017, Miedel, Gavlock et al. 2019, Mohammed 2021). For the studies described here, LAMPS models were set up and maintained for 10 days under flow.
Secretome measurements. Efflux media from LAMPS devices was collected on days 2,4,6,8, and 10 to measure albumin, blood urea nitrogen, and lactate dehydrogenase. […] The CytoTox 96 for lactate dehydrogenase (LDH) and the urea nitrogen test were purchased from Promega (Madison, WI) and Stanbio Laboratory (Boerne, TX), respectively. […] All efflux measurements were carried out according to the manufacturer's protocol and obtained as described previously (Vernetti, Senutovitch et al. 2016, Lee-Montiel, George et al. 2017, Li, George et al. 2018, Miedel, Gavlock et al. 2019).
LAMPS models were maintained for 10 days in MAFLD disease media containing either the indicated concentration of drug or DMSO vehicle control. We determined drug concentrations to test in LAMPS models guided by the CMap database and by cytotoxicity testing in primary hepatocytes (Table S8). […] We examined a panel of metrics to monitor disease-specific phenotypes including model functionality (albumin and blood urea nitrogen production) and cytotoxicity (lactate dehydrogenase secretion), hepatocellular steatosis (LipidTOX Lipid Stain from ThermoFisher Scientific labeling), stellate cell activation (α-smooth muscle actin staining), and the production of a panel of pro-inflammatory cytokines and fibrotic markers (Pro-collagen 1A1 and TIMP-1) (Mohammed et. al, 2021).

[6] = system: LX-2 human stellate cells; assay: LAMPS stellate cell activation (α-smooth muscle actin staining); type: cell-based; conditions: for Effect on stellate cell activation: LAMPS NAFLD/MAFLD model, summary statement; for Stellate cell activation (α-SMA intensity): LAMPS, 10 μM OCA, 30 μM PGZ
From the text: as §1, §2
Stellate cell activation. Staining for LX-2 cell expression of α-smooth muscle actin (α-SMA) was performed after completion of the experimental time course (Day 10) in LAMPS models as previously described (Vernetti, Senutovitch et al. 2016, Li, George et al. 2018) and are outlined in detail in the Supplemental Methods section.

[7] = observational trial of adult males [Vega, G. L., et al. 2008]; cited from earlier work
[8] = NAFLD disease media, day 10, vs vehicle control, Vorinostat 1.7 or 5 μM, AS601245 1 or 3 μM, pioglitazone + vorinostat combination
[9] = LAMPS, EMS media, 10 days, 10 μM OCA
[10] = LAMPS, NAFLD disease media, 10 days, 10 μM OCA, 30 μM PGZ
[11] = NAFLD disease media, day 10, vs vehicle control, 10 μM TGZ, Vorinostat 1.7 or 5 μM, pioglitazone + vorinostat combination
[12] = LAMPS, NAFLD disease media, 10 days, vs vehicle, 10 μM OCA, 30 μM PGZ, 10 μM TGZ, Vorinostat 1.7 or 5 μM, pioglitazone + vorinostat combination
[13] = EMS media, vorinostat 1.7 or 5 μM, pioglitazone 30 μM + vorinostat 1.7 or 5 μM
[14] = EMS media, day 10, vs vehicle, vorinostat 1.7 or 5 μM, pioglitazone 30 μM + vorinostat 1.7 or 5 μM
[15] = LAMPS, EMS media, 10 days, vs vehicle, 10 μM OCA, 30 μM PGZ, vorinostat 1.7 or 5 μM, pioglitazone 30 μM + vorinostat 1.7 or 5 μM

SMILES | Albumin curves (LAMPS models [1]) | Blood urea nitrogen curves (LAMPS models [1]) | Hepatocellular steatosis / lipid accumulation (LipidTOX intensity) (LAMPS models [2]; LAMPS, 10 μM OCA, 30 μM PGZ) | Inflammatory cytokine production [3, 8] | Effect on secreted pro-fibrotic markers / fibrosis [4] | Decrease in secretion of the pro-fibrotic marker Pro-collagen 1a1 [4, 9] [%] | Decrease in secretion of the pro-fibrotic marker Pro-Col 1a1 [4, 10] [%] | Lactate dehydrogenase curves (LAMPS models [5]; NAFLD disease media) | Effect on steatosis (LAMPS models [2]) | Effect on stellate cell activation [6] | Stellate cell activation (α-SMA intensity) [6, 11] | Secreted levels / production of TIMP-1 [4, 12] | also measured
N#CC(c1ccnc(NCCc2cccnc2)n1)c1nc2ccccc2s1 (stereo not shown) [AS601245] | no significant differences | no significant differences | no effect | dose-dependent increase | – | – | – | – | – | – | – | – | –
CC[C@H]1[C@@H](O)[C@@H]2[C@H](CC[C@]3(C)[C@@H]([C@H](C)CCC(=O)O)CC[C@@H]23)[C@@]2(C)CC[C@@H](O)C[C@@H]12 [OCA, obeticholic acid] | – | – | – | – | no significant effect | ~20 | ~20 | no significant differences | – | – | – | – | –
CCc1ccc(CCOc2ccc(CC3SC(=O)NC3=O)cc2)nc1 (stereo not shown) [PGZ, pioglitazone] | – | – | – | – | no significant effect | ~20 | ~20 | no significant differences | – | – | – | – | –
Cc1c(C)c2c(c(C)c1O)CCC(C)(COc1ccc(CC3SC(=O)NC3=O)cc1)O2 (stereo not shown) [TGZ, troglitazone] | no significant differences | no significant differences | significant decrease | – | reduced steatosis but not fibrosis markers; also recorded: no significant effect | – | ~20 | no significant differences | reduced | reduced | significant decrease | no significant change | –
O=C(CCCCCCC(=O)Nc1ccccc1)NO [Vorinostat, suberoylanilide hydroxamic acid] | no significant differences | no significant differences | no effect | significant decrease | robustly mitigated; also recorded: robustly reduced; also recorded: significant inhibition | – | – | – | without an impact; also recorded: without significant amelioration; also recorded: without an appreciable effect | robustly reduced | significant decrease | significant decrease | Albumin secretion profiles (LAMPS models [1]; [13]): no significant differences; Blood urea nitrogen secretion profiles (LAMPS models [1]; [13]): no significant differences; Steatosis / lipid accumulation (LipidTOX intensity) (LAMPS models [2]; LAMPS, EMS media, day 10, vs vehicle, 10 μM OCA, 30 μM PGZ, vorinostat 1.7 or 5 μM, pioglitazone 30 μM + vorinostat 1.7 or 5 μM): no significant effect; Stellate cell activation (α-SMA intensity) [6, 14]: significant decrease; Secreted levels / production of TIMP-1 [4, 15]: significant decrease; Secreted levels / production of the pro-fibrotic marker Pro-Col 1a1 [4, 15]: significant decrease; Production of the pro-fibrotic marker pro-collagen 1a1 ([4]; LAMPS, NAFLD disease media, day 10, vs vehicle control, Vorinostat 1.7 or 5 μM, pioglitazone + vorinostat combination): significant decrease; Effect on inflammatory markers / inflammation ([3]; LAMPS NAFLD/MAFLD model, summary statement): robustly mitigated; also recorded: robustly reduced; also recorded: significant inhibition; Inflammatory cytokine production [3, 14]: significant decrease; LDH secretion (LAMPS models [5]; EMS media, days 8 and 10, 5 μM vorinostat vs vehicle control): significant decrease; LDH secretion (LAMPS models [5]; NAFLD disease media, days 8 and 10, 5 μM Vorinostat vs vehicle control): significant decrease
C[C@]12COC(=O)C[C@@H]1CC[C@@H]1[C@@H]2CC[C@@]2(C)[C@H]1CC[C@]2(C)O [oxandrolone] | – | – | – | – | – | – | – | – | – | – | – | – | Hepatic ketogenesis [7]: promoted hepatic ketogenesis

From patent US20250006331A1, “QUANTITATIVE SYSTEMS PHARMACOLOGY METHODS FOR IDENTIFYING THERAPEUTICS FOR DISEASE STATES” (UNIVERSITY OF PITTSBURGH-OF THE COMMONWEALTH SYSTEM OF …, priority 2021, published 2025)
